Source: patent publication US12643871B2, “Aryl formamide compound containing chiral sulfur oxide or salt thereof, preparation method, herbicidal composition and use thereof” (Qingdao Kingagroot Chemical Compound Co., Ltd., priority 2019, dated 2026)

Assays:
Assay in all cases: Weeding effect in post-emergence stage
Format in all cases: in vivo
Conditions in all cases: 250 g/ha; 2 leaf stage; 15 days after application; fresh weight control rate
Abutilon theophrasti = test system: Abutilon theophrasti
Outline: (§1)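 Greenhouse pot-grown weeds were sprayed at the 2-leaf stage, 2 weeks after sowing, with compound in acetone/Tween 80 plus 1.5 L/ha methyl oleate EC, at 500, 250, 125, 60, 30 or 15 g/ha. Fresh-weight growth control was scored 15 days later on a 0–5 scale, mean of three repeats.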

Setaria viridis = test system: Setaria viridis
Outline: as §1

Amaranthus retroflexus = test system: Amaranthus retroflexus
Outline: as §1

Echinochloa crusgali = test system: Echinochloa crusgali
Outline: as §1

Digitaria sanguinalis = test system: Digitaria sanguinalis
Outline: as §1

| SMILES | weeding effect in post-emergence stage, activity level (growth control rate), Abutilon theophrasti (Abutilon theophrasti) | weeding effect in post-emergence stage, activity level (growth control rate), Setaria viridis (Setaria viridis) | weeding effect in post-emergence stage, activity level (growth control rate), Amaranthus retroflexus (Amaranthus retroflexus) | weeding effect in post-emergence stage, activity level (growth control rate), Echinochloa crusgali (Echinochloa crusgali) | weeding effect in post-emergence stage, activity level (growth control rate), Digitaria sanguinalis (Digitaria sanguinalis) |
| --- | --- | --- | --- | --- | --- |
| CCC[S@@+]([O-])c1c(C(F)(F)F)ccc(C(=O)Nc2nnc(C(C)C)o2)c1F [Compound 359] | 5 (Level 5: growth control rate is above 85%) | 5 (Level 5: growth control rate is above 85%) | 5 (Level 5: growth control rate is above 85%) | 5 (Level 5: growth control rate is above 85%) | 5 (Level 5: growth control rate is above 85%) |
| COc1c(C(=O)Nc2nnc(C)o2)ccc(C(F)(F)F)c1[S@+]([O-])CCC#N [Compound 338] | 5 (Level 5: growth control rate is above 85%) | 5 (Level 5: growth control rate is above 85%) | 5 (Level 5: growth control rate is above 85%) | 5 (Level 5: growth control rate is above 85%) | 5 (Level 5: growth control rate is above 85%) |
| COc1c(C(=O)Nc2nnc(C)o2)ccc(C(F)(F)F)c1[S@+]([O-])CCCl [Compound 332] | 5 (Level 5: growth control rate is above 85%) | 5 (Level 5: growth control rate is above 85%) | 5 (Level 5: growth control rate is above 85%) | 5 (Level 5: growth control rate is above 85%) | 5 (Level 5: growth control rate is above 85%) |
| CCC[S@@+]([O-])c1c(C(F)(F)F)ccc(C(=O)Nc2nnc(C)o2)c1Cl [Compound 543] | 5 (Level 5: growth control rate is above 85%) | 5 (Level 5: growth control rate is above 85%) | 5 (Level 5: growth control rate is above 85%) | 5 (Level 5: growth control rate is above 85%) | 5 (Level 5: growth control rate is above 85%) |
| COc1c(C(=O)Nc2nnc(C)o2)ccc(C(F)(F)F)c1[S+]([O-])COCc1ccccc1 (stereo not drawn) [Compound 347] | 5 (Level 5: growth control rate is above 85%) | 5 (Level 5: growth control rate is above 85%) | 5 (Level 5: growth control rate is above 85%) | 5 (Level 5: growth control rate is above 85%) | 5 (Level 5: growth control rate is above 85%) |
| CCC[S@@+]([O-])c1c(C(F)(F)F)ccc(C(=O)Nc2nnc(C)o2)c1OC [Compound 531] | 5 (Level 5: growth control rate is above 85%) | 5 (Level 5: growth control rate is above 85%) | 5 (Level 5: growth control rate is above 85%) | 5 (Level 5: growth control rate is above 85%) | 5 (Level 5: growth control rate is above 85%) |
| CSC[S@+]([O-])c1c(C(F)(F)F)ccc(C(=O)Nc2nnc(C)o2)c1F [Compound 203] | 5 (Level 5: growth control rate is above 85%) | 5 (Level 5: growth control rate is above 85%) | 5 (Level 5: growth control rate is above 85%) | 5 (Level 5: growth control rate is above 85%) | 5 (Level 5: growth control rate is above 85%) |
| COc1c(C(=O)Nc2nnc(C)o2)ccc(C(F)(F)F)c1[S@+]([O-])CCCF [Compound 320] | 5 (Level 5: growth control rate is above 85%) | 5 (Level 5: growth control rate is above 85%) | 5 (Level 5: growth control rate is above 85%) | 5 (Level 5: growth control rate is above 85%) | 5 (Level 5: growth control rate is above 85%) |
| CCC(C)[S@@+]([O-])c1c(C(F)(F)F)ccc(C(=O)Nc2nnco2)c1F (stereo partly drawn) [Compound 576] | 5 (Level 5: growth control rate is above 85%) | 5 (Level 5: growth control rate is above 85%) | 5 (Level 5: growth control rate is above 85%) | 5 (Level 5: growth control rate is above 85%) | 5 (Level 5: growth control rate is above 85%) |
| CCCC[S@@+]([O-])c1c(C(F)(F)F)ccc(C(=O)Nc2nnco2)c1F [Compound 575] | 5 (Level 5: growth control rate is above 85%) | 5 (Level 5: growth control rate is above 85%) | 5 (Level 5: growth control rate is above 85%) | 5 (Level 5: growth control rate is above 85%) | 5 (Level 5: growth control rate is above 85%) |
| CC#CC[S@@+]([O-])c1c(C(F)(F)F)ccc(C(=O)Nc2nnc(C)o2)c1F [Compound 25] | 5 (Level 5: growth control rate is above 85%) | 5 (Level 5: growth control rate is above 85%) | 5 (Level 5: growth control rate is above 85%) | 5 (Level 5: growth control rate is above 85%) | 5 (Level 5: growth control rate is above 85%) |
| Cc1nnc(NC(=O)c2ccc(C(F)(F)F)c([S@+]([O-])CC(C)F)c2F)o1 (stereo partly drawn) [Compound 27] | 5 (Level 5: growth control rate is above 85%) | 5 (Level 5: growth control rate is above 85%) | 5 (Level 5: growth control rate is above 85%) | 5 (Level 5: growth control rate is above 85%) | 5 (Level 5: growth control rate is above 85%) |
